From ChEMBL document CHEMBL5257033, “Pyrrolidinone and pyrrolidine derivatives: Evaluation as inhibitors of InhA and Mycobacterium tuberculosis” (Eur J Med Chem, 2016)
Values after ≈ are worked out from the molar mass of the structure shown.

Key:
Type in all cases: functional
[1] = system: Mycobacterium tuberculosis; assay: Antimycobacterial activity against Mycobacterium tuberculosis NTB1 harboring DprE1 G387S mutant assessed as inhibition of bacterial growth measured after 21 days by microbroth dilution method; details: time 21 day
[2] = system: Mycobacterium tuberculosis; assay: Antimycobacterial activity against Mycobacterium tuberculosis DR1 harboring mmpL3 V681I mutant assessed as inhibition of bacterial growth measured after 21 days by microbroth dilution method; details: time 21 day
[3] = system: Mycobacterium tuberculosis; assay: Antimycobacterial activity against Mycobacterium tuberculosis 88.7 harboring pyrG V186G mutant assessed as inhibition of bacterial growth measured after 21 days by microbroth dilution method; details: time 21 day
[4] = system: Mycobacterium tuberculosis; assay: Antimycobacterial activity against Mycobacterium tuberculosis 53.3 harboring Rv2466c W28S mutant assessed as inhibition of bacterial growth measured after 21 days by microbroth dilution method; details: time 21 day
[5] = system: Mycobacterium tuberculosis; assay: Antimycobacterial activity against Mycobacterium tuberculosis Ty1 harboring Rv3405c C190T mutant assessed as inhibition of bacterial growth measured after 21 days by microbroth dilution method; details: time 21 day
[6] = system: Mycobacterium tuberculosis; assay: Antimycobacterial activity against Mycobacterium tuberculosis 81.10 harboring EthA del (1109 to 37 residues) mutant assessed as inhibition of bacterial growth measured after 21 days by microbroth dilution method; details: time 21 day
[7] = system: Mycobacterium tuberculosis; assay: Antimycobacterial activity against streptomycin, isoniazid, rifampicin, ethambutol, pyrazinamide, ethionamide and capreomycin resistant Mycobacterium tuberculosis IC2 assessed as inhibition of bacterial growth measured after 21 days by microbroth dilution method; details: IC2, 504 h, time 21 day

Compound | MIC [1] [µg/mL] | MIC [2] [µg/mL] | MIC [3] [µg/mL] | MIC [4] [µg/mL] | MIC [5] [µg/mL] | MIC [6] [µg/mL] | MIC [7] [µg/mL]
Clc1ccc(CN2CCC(C3c4ccccc4-c4ccccc43)C2)cc1 (centres undefined) | 0.5 (≈ 1.39 µM) | 0.5 (≈ 1.39 µM) | 0.5 (≈ 1.39 µM) | 0.5 (≈ 1.39 µM) | 0.5 (≈ 1.39 µM) | 0.5 (≈ 1.39 µM) | 0.5 (≈ 1.39 µM)
NNC(=O)c1ccncc1 [ISONIAZID] | 0.025 (≈ 0.182 µM) | 0.025 (≈ 0.182 µM) | 0.025 (≈ 0.182 µM) | 0.025 (≈ 0.182 µM) | 0.025 (≈ 0.182 µM) | 0.025 (≈ 0.182 µM) | > 0.2
